Key:
HepaRG cells = assay: Incubations using HepaRG cells; details: 25 µM parent, 24 h
Method: Cell incubations were performed in a monolayer assay (Kroesen et al. [2025]) and in accordance with the manufacturer’s instructions.
All incubations were performed in triplicate, with each well containing 0.5% (v/v) DMSO. Following incubation, 50 µL of the medium supernatant was transferred to a new reaction tube and precipitated with 30 µL of acetonitrile cooled to −20 °C, containing 2.5 µM trimipramine-d3 as an internal standard. […] The mixture was vortexed and centrifuged for 2 min at 18,407 × g. A volume of 70 µL of the supernatant was transferred into an autosampler vial and 5 µL was injected onto the LC–HRMS/MS system.
HepaRG cells were thawed and resuspended in 13.5 mL (~ 740,000 cells/mL) thaw
and seed medium at 37 °C. Thaw and seed medium consisted of Williams E medium,
100 U/mL penicillin, 100 µg/mL streptomycin, GlutaMAX, and HPRG670 supplement.
Cells were handled under sterile conditions using a laminar flow bench class II (Thermo
Scientific, TF, Schwerte, Germany). Aliquots of 100 µL cell suspension were seeded
on collagen-coated 96-well plates (~ 74,000 cells/well). Evaporation was minimized by
filling the outer wells with 100 µL thaw and seed medium. Cells were preincubated for
4 h in an incubator (Binder, Tuttlingen, Germany) at 37 °C, 95 % air humidity, and 5 %
CO2. After preincubation, 50 µL of the thaw and seed medium was replaced with 50 µL
solution of each cathinone (25 µM) in thaw and seed medium, followed by an
incubation for 24 h at 37 °C, 95 % air humidity, and 5 % CO2 atmosphere.
A Thermo Fisher ( TF, Dreieich, Germany) Dionex UltiMate 3000 RS pump consisting
of a degasser, a quaternary pump, and an autosampler, coupled to a TF Q Exactive
Plus system equipped with a heated electrospray ionization (HESI)-II source were
used. A mass calibration was done according to the manufacturer's recommendations
using external mass calibration prior to analysis. Gradient elution was performed on a
TF Accucore PhenylHexyl column (100 mm x 2.1 mm, 2.6 μm) with a 2 mM aqueous
ammonium formate solution containing 0.1 % (v/v) formic acid (pH 3, eluent A) and 2
mM ammonium formate solution in acetonitrile/methanol (50:50, v/v) containing 0.1 %
(v/v) formic acid, and 1 % (v/v) water (eluent B). The gradient was stepped as follows:
hold 99 % A. Initial flow rate from 0–9.5 min was 500 μL/min and final flow rate was
800 μL/min from 9.5–11.5 min. Mass spectrometry was performed using full scan data
and a subsequent data-dependent acquisition (DDA) with priority to mass-to-charge
ratios (m/z) of parent compounds and their expected metabolites. The inclusion list
contained m/z values of likely formed metabolites such as O- or S-desmethyl, hydroxy,
and oxo reduction metabolites (phase I) as well as sulfates, glucuronides (phase II),
and combinations thereof.
TF Xcalibur Qual Browser software […]

[1] = tested on: pooled human liver S9 fraction (pHLS9); assay: Incubations using pooled human liver S9 fraction; details: 25 µM parent, 60 and 360 min
Method: In short, 25 μg/mL alamethicin (UGT reaction mix B), pHLS9 (2 mg microsomal protein/mL), 2.5 mM isocitrate, 0.8 U/mL isocitrate dehydrogenase, 100 U/mL superoxide dismutase, 0.6 mM NADP^+, and 2.5 mM Mg^2+ were preincubated for 10 min at 37 °C. Then, 2.5 mM UDP-glucuronic acid (UGT reaction mix A), 40 µM PAPS, 1.2 mM SAM, 1 mM DTT, and 10 mM GSH were added. The reaction was started by adding the substrate (25 µM each, final), resulting in a final incubation volume of 150 µL. MDMA or quetiapine (25 µM and 250 µM final concentrations) was incubated as positive controls. […] Incubations were performed in triplicate and organic solvent in the incubation mixture was below 1% (Chauret et al. [1998]). After an incubation time of 60 and 360 min, aliquots (50 µL) were transferred to a new reaction tube. The reaction was stopped with 30 µL acetonitrile (−20 °C) containing 2.5 µM trimipramine-d3 as an internal standard. Samples were vortexed, stored at −20 °C for 30 min, and centrifuged for 2 min at 18,407 × g. 70 µL of the supernatant were transferred to autosampler vials and 5 µL was injected onto the LC–HRMS/MS system.

CYP1A2 = molecular target: T1, CYP1A2 (Homo sapiens, UniProt P05177); assay: Monooxygenases activity screening, CYP1A2; type: in vitro ADME; parameters: key: +, detected; -, not detected; details: substrate 4MeS-NE-BP 25 µM, 30 min, 37 °C; Table S3.4
T1 construct: purchased Discovery Life Sciences (Huntsville, LA, USA); host or cells: baculovirus-infected insect cells (microsomes, Supersomes)
T1 sequence (P05177 1-516): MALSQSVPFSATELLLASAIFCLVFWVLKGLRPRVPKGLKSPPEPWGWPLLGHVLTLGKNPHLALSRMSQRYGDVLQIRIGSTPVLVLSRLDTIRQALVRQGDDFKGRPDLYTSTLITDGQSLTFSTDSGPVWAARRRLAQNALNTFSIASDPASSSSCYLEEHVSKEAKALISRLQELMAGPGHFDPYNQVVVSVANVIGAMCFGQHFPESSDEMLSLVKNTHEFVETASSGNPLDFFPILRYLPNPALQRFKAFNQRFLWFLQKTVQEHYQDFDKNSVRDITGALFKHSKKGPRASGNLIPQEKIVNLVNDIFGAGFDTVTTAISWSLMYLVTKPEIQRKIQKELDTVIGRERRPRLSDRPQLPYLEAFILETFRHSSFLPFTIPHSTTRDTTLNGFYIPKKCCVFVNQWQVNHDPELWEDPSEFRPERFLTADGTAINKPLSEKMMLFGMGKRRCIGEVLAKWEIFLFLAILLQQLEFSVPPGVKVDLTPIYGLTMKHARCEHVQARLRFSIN
Method: (§1) For incubations with CYP2A6 or CYP2C9, phosphate buffer was replaced with 90 mM Tris buffer, according to the manufacturer’s guideline. […] All incubations were done in duplicate and concentrations were fixed. Verapamil (25 µM) was incubated as a positive control.

CYP2A6 = molecular target: T2, CYP2A6 (Homo sapiens, UniProt P11509); assay: Monooxygenases activity screening, CYP2A6; type: in vitro ADME; parameters: key: +, detected; -, not detected; details: substrate 4MeS-NE-BP 25 µM, 30 min, 37 °C; Table S3.4
T2 construct: purchased Discovery Life Sciences (Huntsville, LA, USA); host or cells: baculovirus-infected insect cells (microsomes, Supersomes)
T2 sequence (P11509 1-494): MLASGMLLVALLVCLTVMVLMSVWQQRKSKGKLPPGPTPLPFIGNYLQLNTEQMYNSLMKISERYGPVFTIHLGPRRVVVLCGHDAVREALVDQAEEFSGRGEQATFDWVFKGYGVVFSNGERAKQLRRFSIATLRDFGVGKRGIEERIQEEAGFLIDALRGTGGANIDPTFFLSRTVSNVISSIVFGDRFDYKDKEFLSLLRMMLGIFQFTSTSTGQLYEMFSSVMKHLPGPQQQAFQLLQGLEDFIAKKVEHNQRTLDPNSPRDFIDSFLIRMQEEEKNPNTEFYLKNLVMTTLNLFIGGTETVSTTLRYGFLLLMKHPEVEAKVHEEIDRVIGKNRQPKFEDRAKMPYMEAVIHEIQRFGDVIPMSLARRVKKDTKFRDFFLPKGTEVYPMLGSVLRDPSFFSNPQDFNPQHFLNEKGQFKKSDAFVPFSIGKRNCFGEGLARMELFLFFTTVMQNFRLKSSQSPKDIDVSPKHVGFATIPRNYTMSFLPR
Method: as §1

CYP2B6 = molecular target: T3, CYP2B6 (Homo sapiens, UniProt P20813); assay: Monooxygenases activity screening, CYP2B6; type: in vitro ADME; parameters: key: +, detected; -, not detected; details: substrate 4MeS-NE-BP 25 µM, 30 min, 37 °C; Table S3.4
T3 construct: purchased Discovery Life Sciences (Huntsville, LA, USA); host or cells: baculovirus-infected insect cells (microsomes, Supersomes)
T3 sequence (P20813 1-491): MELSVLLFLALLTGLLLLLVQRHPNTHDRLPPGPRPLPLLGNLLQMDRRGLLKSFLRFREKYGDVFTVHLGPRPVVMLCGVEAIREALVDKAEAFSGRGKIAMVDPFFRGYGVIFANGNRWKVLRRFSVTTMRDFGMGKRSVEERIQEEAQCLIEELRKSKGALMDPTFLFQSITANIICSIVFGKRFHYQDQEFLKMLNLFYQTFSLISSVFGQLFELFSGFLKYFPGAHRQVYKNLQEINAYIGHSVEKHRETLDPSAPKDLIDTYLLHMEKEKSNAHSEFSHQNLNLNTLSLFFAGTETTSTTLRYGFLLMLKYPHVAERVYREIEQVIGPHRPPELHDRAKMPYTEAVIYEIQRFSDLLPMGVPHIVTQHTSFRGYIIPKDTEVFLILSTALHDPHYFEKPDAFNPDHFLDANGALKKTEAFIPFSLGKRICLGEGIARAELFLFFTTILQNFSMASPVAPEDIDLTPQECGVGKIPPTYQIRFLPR
Method: as §1

CYP2C8 = molecular target: T4, CYP2C8 (Homo sapiens, UniProt P10632); assay: Monooxygenases activity screening, CYP2C8; type: in vitro ADME; parameters: key: +, detected; -, not detected; details: substrate 4MeS-NE-BP 25 µM, 30 min, 37 °C; Table S3.4
T4 construct: purchased Discovery Life Sciences (Huntsville, LA, USA); host or cells: baculovirus-infected insect cells (microsomes, Supersomes)
T4 sequence (P10632 1-490): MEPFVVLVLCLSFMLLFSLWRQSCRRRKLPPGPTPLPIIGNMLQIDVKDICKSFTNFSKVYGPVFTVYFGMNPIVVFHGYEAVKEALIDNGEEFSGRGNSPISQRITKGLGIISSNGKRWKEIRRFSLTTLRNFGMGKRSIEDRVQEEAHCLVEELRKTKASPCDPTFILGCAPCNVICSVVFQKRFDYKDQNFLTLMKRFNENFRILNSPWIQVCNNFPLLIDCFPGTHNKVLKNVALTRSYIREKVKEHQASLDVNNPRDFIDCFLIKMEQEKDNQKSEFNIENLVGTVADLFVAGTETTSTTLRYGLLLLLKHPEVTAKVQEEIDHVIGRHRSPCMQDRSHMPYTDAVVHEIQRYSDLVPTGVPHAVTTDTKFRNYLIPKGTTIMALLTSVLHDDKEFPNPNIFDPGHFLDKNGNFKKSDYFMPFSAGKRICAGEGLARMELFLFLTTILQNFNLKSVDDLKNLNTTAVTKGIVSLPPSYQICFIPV
Method: as §1

CYP2C9 = molecular target: T5, CYP2C9 (Homo sapiens, UniProt P11712); assay: Monooxygenases activity screening, CYP2C9; type: in vitro ADME; parameters: key: +, detected; -, not detected; details: substrate 4MeS-NE-BP 25 µM, 30 min, 37 °C; Table S3.4
T5 construct: purchased Discovery Life Sciences (Huntsville, LA, USA); host or cells: baculovirus-infected insect cells (microsomes, Supersomes)
T5 sequence (P11712 whole entry): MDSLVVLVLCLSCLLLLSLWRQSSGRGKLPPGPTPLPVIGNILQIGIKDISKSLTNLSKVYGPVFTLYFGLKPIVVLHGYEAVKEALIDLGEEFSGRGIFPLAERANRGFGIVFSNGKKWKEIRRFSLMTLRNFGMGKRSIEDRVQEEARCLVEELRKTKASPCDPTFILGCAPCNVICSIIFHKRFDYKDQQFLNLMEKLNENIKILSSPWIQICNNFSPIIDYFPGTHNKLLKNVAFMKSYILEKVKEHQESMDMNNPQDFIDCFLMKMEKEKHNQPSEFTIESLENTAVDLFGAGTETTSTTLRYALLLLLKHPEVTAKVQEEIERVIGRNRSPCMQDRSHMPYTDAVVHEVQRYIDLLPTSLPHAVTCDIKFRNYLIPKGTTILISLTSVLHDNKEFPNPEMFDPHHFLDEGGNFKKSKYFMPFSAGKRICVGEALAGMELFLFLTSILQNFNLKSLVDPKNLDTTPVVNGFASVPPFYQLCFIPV
Method: as §1

CYP2C19 = molecular target: T6, CYP2C19 (Homo sapiens, UniProt P33261); assay: Monooxygenases activity screening, CYP2C19; type: in vitro ADME; parameters: key: +, detected; -, not detected; details: substrate 4MeS-NE-BP 25 µM, 30 min, 37 °C; Table S3.4
T6 construct: purchased Discovery Life Sciences (Huntsville, LA, USA); host or cells: baculovirus-infected insect cells (microsomes, Supersomes)
T6 sequence (P33261 whole entry): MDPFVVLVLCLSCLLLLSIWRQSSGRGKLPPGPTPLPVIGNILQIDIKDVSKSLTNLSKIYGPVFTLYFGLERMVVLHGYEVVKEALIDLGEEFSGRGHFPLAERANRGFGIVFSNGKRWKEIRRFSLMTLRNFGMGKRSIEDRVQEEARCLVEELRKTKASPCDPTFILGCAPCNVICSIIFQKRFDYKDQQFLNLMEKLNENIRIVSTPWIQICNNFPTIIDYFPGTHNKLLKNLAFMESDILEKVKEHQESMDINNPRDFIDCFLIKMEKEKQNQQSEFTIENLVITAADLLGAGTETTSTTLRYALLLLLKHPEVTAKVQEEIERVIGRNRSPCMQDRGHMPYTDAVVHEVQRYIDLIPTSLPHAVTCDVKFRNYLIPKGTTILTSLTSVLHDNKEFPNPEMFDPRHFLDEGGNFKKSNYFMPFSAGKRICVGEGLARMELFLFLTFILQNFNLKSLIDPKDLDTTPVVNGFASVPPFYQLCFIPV
Method: as §1

CYP2D6 = molecular target: T7, CYP2D6 (Homo sapiens, UniProt P10635); assay: Monooxygenases activity screening, CYP2D6; type: in vitro ADME; parameters: key to one-step metabolite detected in CYP2D6 incubation: +, detected; -, not detected; details: substrate 4MeS-NE-BP 25 µM, 30 min, 37 °C; Table S3.4
T7 construct: purchased Discovery Life Sciences (Huntsville, LA, USA); host or cells: baculovirus-infected insect cells (microsomes, Supersomes)
T7 sequence (P10635 whole entry): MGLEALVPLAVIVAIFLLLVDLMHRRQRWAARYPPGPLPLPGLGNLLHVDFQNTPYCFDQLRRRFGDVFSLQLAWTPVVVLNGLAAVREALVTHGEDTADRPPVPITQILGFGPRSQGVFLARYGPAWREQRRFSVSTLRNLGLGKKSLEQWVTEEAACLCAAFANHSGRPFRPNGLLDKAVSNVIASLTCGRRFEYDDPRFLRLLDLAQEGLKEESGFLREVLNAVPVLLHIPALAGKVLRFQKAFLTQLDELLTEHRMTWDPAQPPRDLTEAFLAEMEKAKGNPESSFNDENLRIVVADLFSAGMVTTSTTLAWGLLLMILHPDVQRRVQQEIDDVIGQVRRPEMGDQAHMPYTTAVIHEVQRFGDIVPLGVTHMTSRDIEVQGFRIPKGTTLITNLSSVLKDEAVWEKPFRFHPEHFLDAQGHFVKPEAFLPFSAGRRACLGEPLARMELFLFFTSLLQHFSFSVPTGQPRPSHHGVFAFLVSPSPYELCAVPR
Method: as §1

CYP2E1 = molecular target: T8, CYP2E1 (Homo sapiens, UniProt P05181); assay: Monooxygenases activity screening, CYP2E1; type: in vitro ADME; parameters: key: +, detected; -, not detected; details: substrate 4MeS-NE-BP 25 µM, 30 min, 37 °C; Table S3.4
T8 construct: purchased Discovery Life Sciences (Huntsville, LA, USA); host or cells: baculovirus-infected insect cells (microsomes, Supersomes)
T8 sequence (P05181 whole entry): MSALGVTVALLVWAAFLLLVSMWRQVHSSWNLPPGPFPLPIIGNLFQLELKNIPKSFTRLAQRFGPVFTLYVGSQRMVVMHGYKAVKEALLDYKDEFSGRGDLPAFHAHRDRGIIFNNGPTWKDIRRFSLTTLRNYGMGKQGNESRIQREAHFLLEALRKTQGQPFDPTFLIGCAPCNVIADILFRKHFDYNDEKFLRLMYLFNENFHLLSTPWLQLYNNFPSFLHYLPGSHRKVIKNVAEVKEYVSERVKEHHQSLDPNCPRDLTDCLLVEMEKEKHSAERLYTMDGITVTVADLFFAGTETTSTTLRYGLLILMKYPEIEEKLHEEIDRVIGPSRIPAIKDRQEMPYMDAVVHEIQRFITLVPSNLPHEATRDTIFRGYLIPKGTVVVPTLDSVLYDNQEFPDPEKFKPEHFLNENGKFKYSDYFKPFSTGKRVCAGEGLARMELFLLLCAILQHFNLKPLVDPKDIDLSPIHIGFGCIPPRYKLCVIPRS
Method: as §1

CYP3A4 = molecular target: T9, CYP3A4 (Homo sapiens, UniProt P08684); assay: Monooxygenases activity screening, CYP3A4; type: in vitro ADME; parameters: key: +, detected; -, not detected; details: substrate 4MeS-NE-BP 25 µM, 30 min, 37 °C; Table S3.4
T9 construct: purchased Discovery Life Sciences (Huntsville, LA, USA); host or cells: baculovirus-infected insect cells (microsomes, Supersomes)
T9 sequence (P08684 whole entry): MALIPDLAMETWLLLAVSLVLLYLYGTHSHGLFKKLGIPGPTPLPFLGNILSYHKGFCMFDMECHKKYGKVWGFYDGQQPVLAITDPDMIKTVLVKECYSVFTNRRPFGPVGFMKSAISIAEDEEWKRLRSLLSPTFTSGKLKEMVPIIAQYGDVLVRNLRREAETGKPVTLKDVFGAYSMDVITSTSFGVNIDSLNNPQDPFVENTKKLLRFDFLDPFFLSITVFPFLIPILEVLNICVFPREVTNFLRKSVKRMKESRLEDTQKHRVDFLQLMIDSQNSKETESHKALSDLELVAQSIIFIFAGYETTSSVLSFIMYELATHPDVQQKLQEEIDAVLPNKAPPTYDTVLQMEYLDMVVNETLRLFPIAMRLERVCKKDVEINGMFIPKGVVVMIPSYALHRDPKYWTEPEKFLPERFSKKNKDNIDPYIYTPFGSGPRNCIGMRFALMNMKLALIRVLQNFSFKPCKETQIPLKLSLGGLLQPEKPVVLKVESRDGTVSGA
Method: as §1

CYP3A5 = molecular target: T10, CYP3A5 (Homo sapiens, UniProt P20815); assay: Monooxygenases activity screening, CYP3A5; type: in vitro ADME; parameters: key: +, detected; -, not detected; details: substrate 4MeS-NE-BP 25 µM, 30 min, 37 °C; Table S3.4
T10 construct: purchased Discovery Life Sciences (Huntsville, LA, USA); host or cells: baculovirus-infected insect cells (microsomes, Supersomes)
T10 sequence (P20815 whole entry): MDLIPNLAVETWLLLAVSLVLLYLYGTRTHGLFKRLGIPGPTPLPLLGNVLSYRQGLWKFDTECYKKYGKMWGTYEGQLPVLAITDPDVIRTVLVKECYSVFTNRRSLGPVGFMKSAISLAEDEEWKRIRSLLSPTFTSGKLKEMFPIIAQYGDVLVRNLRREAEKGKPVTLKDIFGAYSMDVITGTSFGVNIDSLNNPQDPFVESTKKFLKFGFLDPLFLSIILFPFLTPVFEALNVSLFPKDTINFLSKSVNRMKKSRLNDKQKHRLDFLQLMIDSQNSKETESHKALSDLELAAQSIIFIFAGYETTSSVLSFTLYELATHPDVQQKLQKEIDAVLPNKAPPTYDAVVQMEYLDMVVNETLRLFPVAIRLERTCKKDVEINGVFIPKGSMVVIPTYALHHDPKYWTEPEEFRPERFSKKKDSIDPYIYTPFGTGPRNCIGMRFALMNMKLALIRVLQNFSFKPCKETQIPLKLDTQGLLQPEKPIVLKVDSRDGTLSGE
Method: as §1

[2] = molecular target: T11, flavin-containing monooxygenase 3 (FMO3) (Homo sapiens, UniProt P31513); assay: Monooxygenases activity screening, FMO3; type: in vitro ADME; parameters: key: +, detected; -, not detected; details: substrate 4MeS-NE-BP 25 µM, 30 min, 37 °C; Table S3.4
T11 construct: purchased Discovery Life Sciences (Huntsville, LA, USA); host or cells: baculovirus-infected insect cells (microsomes, Supersomes)
T11 sequence (P31513 1-532): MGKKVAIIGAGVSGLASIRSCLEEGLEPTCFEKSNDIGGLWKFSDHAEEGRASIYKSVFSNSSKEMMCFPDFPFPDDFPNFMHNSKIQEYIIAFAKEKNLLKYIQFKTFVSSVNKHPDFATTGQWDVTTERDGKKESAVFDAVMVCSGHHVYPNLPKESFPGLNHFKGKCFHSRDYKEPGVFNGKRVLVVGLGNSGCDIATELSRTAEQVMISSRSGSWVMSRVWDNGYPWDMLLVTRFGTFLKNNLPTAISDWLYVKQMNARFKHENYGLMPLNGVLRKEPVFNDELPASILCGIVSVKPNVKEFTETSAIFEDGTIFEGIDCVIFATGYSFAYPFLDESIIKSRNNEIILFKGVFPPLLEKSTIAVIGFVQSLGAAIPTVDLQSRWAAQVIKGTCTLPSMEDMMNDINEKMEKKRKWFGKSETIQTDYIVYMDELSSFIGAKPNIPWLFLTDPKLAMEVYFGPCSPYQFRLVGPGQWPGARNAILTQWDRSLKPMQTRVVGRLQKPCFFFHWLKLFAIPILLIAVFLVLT
Method: as §1

Compound	metabolite detection in HepaRG incubations (HepaRG cells)	metabolite detection in pHLS9 [1]	one-step metabolite detected in CYP1A2 incubation (CYP1A2)	one-step metabolite detected in CYP2A6 incubation (CYP2A6)	one-step metabolite detected in CYP2B6 incubation (CYP2B6)	one-step metabolite detected in CYP2C8 incubation (CYP2C8)	one-step metabolite detected in CYP2C9 incubation (CYP2C9)	one-step metabolite detected in CYP2C19 incubation (CYP2C19)	one-step metabolite detected in CYP2D6 incubation (CYP2D6)	one-step metabolite detected in CYP2E1 incubation (CYP2E1)	one-step metabolite detected in CYP3A4 incubation (CYP3A4)	one-step metabolite detected in CYP3A5 incubation (CYP3A5)	one-step metabolite detected in FMO3 incubation [2]
CCCC(C(=O)c1ccc(OC2OC(C(=O)O)C(O)C(O)C2O)cc1)N1CCCC1 (stereo not drawn) [MO3.10]	observed in HepaRG incubations	could not be detected											
CCC(C(=O)c1ccc(SC)cc1)N(O)CC (stereo not drawn) [MT1.4]	only detected in HepaRG incubations		+	-	-	-	-	-	+	-	+	+	+
CCC(N)C(=O)c1ccc(SC)cc1 (stereo not drawn) [MT2.5]	only detected in HepaRG incubations												

Reference: PMC12858467, “In vitro toxicokinetics and metabolic profiling of methoxycathinones and methylthiocathinones using human liver systems and hyphenated mass spectrometry” (Archives of Toxicology, 2025)
